Read-outs that look alike come from different tables or passages of the source.
Test system: cervical adenocarcinoma HeLa cells
Assay: Cell viability neutral red uptake assay, HeLa
Assay type: cell-based, human
Settings: Homo sapiens

COc1ccc(-c2oc3cc(O)c(OC)c(O)c3c(=O)c2OC)cc1 [santin, 5,7-dihydroxy-3,6,4′-trimethoxyflavone]
IC50 (24 h, NAC treated (2 mM N-acetyl-L-cysteine preincubation 2 h), read-out: IC50, neutral red uptake assay): 25.6 ± 2.4 µM
IC50 (24 h, read-out: IC50 values ± SD in neutral red uptake assay): 5.5 ± 1.3 µM
IC50 (24 h, without NAC, read-out: IC50, neutral red uptake assay): 18.2 ± 2 µM
IC50 (48 h, NAC treated (2 mM N-acetyl-L-cysteine preincubation 2 h), read-out: IC50, neutral red uptake assay): 11.6 ± 1.4 µM
IC50 (48 h, read-out: IC50 values ± SD in neutral red uptake assay): 5.4 ± 0.8 µM
IC50 (48 h, without NAC, read-out: IC50, neutral red uptake assay): 6.9 ± 1.1 µM

Source: publication PMC10512030, “Prolidase-proline oxidase axis is engaged in apoptosis induction by birch buds flavonol santin in endometrial adenocarcinoma cell line” (Frontiers in Molecular Biosciences, 2023)
